Test results published in patent publication US10980901B2, “Treatment of PMSA expressing cancers” (THE EUROPEAN ATOMIC ENERGY COMMUNITY (EURATOM), REPRESENTED …, priority 2016, dated 2021).

Tests used:
[1] = system: metastatic castration-resistant prostate cancer (mCRPC); assay: Treatment of individual mCRPC patients A and B: PSA level and PSMA PET/CT restaging; format: in vivo
Experimental: Clinical Course of Patient A presented with diffuse red marrow infiltration of mCRPC (this physical condition was considered a contraindication for treatment with β-emitters). Patient A was treated with 3 cycles of 9-10 MBq (100 kBq per kilogram of body weight) of Ac-225-PSMA-617 at bimonthly intervals.
(§1) Patient B was initially treated with Lu-177-PSMA-617 (7.4 GBq per cycle), which was offered as salvage therapy. The initial PSA level was 294 ng/ml. […] Therapy was changed to Ac-225-PSMA-617, and the patient received 3 cycles of 6.4 MBq (100 kBq per kilogram of body weight) at bimonthly intervals.

PSMA expressing cancers [2] = assay: Treatment response monitored by PSA values in blood, patient cohorts; format: in vivo, patients; settings: for patients in PSA response / patients in PSA response (percentage): at week-24
Experimental: 20 Patients were treated 3 times with activities of 100 kBq/kg body weight of Ac-225-PSMA-617 in two month intervals.
Treatment response was monitored by PSA values in blood and with PET/CT (positron emission tomography-computed tomography) with Ga-68-PSMA-HBED-CC (also called Gallium-68-PSMA11) before therapy and after the third therapy.
Experiments have been conducted to compare the efficiency of the Ac-225-radiopharmaceuticals as used in the present invention, such as Ac-225-PSMA-617, with that of non-Ac-225-radiopharmaceuticals comprising the same targeting compound, but chelated e.g. with Lu-177, such as a radionuclide Lu-177-PSMA-617.

[3] = Toxicity monitored by blood sampling and clinical side effects, patient cohorts; format: in vivo, patients; settings: patient cohort; for change in thrombocyte or white blood cell count: during therapy; for dysfunction of salivary glands: reported side effect; for tolerability of the treatment: lab tests every 4 weeks, clinical side effects every 8 weeks
Experimental: Toxicity was monitored by blood sampling.
Hematologic response was evaluated every 4 weeks per lab tests and clinical side effects were monitored every 8 weeks.

[4] = Laboratory test follow-up and side effects of individual mCRPC patients A and B; format: in vivo
From the text: After each cycle, the blood cell count and alkaline phosphatase level were checked every 2 week. The platelet level never dropped below 100/n1 (grade 1 according to the Common Terminology Criteria for Adverse Events, version 4.0), the total white blood cell count never dropped below 2.5/n1 (grade 1), and the hemoglobin level never dropped below 9.5 g/dl (grade 2) (FIG. 13A). […] A concordant decline in PSA level and alkaline phosphatase level (FIG. 13B) further underlined the excellent treatment response.
as §1

PSMA expressing cancers [5] = assay: Treatment response monitored by PSA values in blood, patient cohorts; format: in vivo, patients; settings: comparative example
[6] = patient A, after additional 6 MBq consolidation therapy
[7] = eight weeks after the first treatment cycle, 20 patients, 100 kBq/kg body weight
[8] = sixteen weeks after the first treatment cycle, 20 patients, 100 kBq/kg body weight
[9] = twenty-four weeks after the first treatment cycle, 20 patients, 100 kBq/kg body weight
[10] = patient A, checked every 2 week after each cycle
[11] = 30 patients, eight weeks after the first treatment cycle

O=C(O)CCC(NC(=O)NC(CCCCNC(=O)C(Cc1cccc2ccccc12)NC(=O)C1CCC(CNC(=O)CN2CCN(CC(=O)O)CCN(CC(=O)O)CCN(CC(=O)O)CC2)CC1)C(=O)O)C(=O)O (stereo not shown) [Ac-225-PSMA-617, metal not drawn]
tumor markers (PSA, alkaline phosphatase) ([1]; patient A, FIG. 13B): Decline of tumor markers to none measurable or reference range
PSA level [1, 6]: less than 0.1 ng/ml
imaging response [1, 6]: complete imaging response
previously PSMA-positive lesions on PSMA PET/CT ([1]; patient A, two months after 3 cycles of 9-10 MBq (100 kBq/kg) at bimonthly intervals): visually disappeared
PSA level ([1]; patient A, two months after 3 cycles of 9-10 MBq, dropped from more than 3,000 ng/ml): 0.26 ng/mL
restaging based on PSMA PET/CT ([1]; patient B, after 2 cycles of 6.4 MBq (100 kBq/kg) at bimonthly intervals, after failed Lu-177-PSMA-617): partial response
restaging based on PSMA PET/CT ([1]; patient B, after 3 cycles of 6.4 MBq (100 kBq/kg) at bimonthly intervals): complete remission
PSA level ([1]; patient B, after 3 cycles of 6.4 MBq, below the measurable level): < 0.1 ng/mL
restaging on 68-Ga-PSMA-11 PET/CT ([1]; patient B, after second and third cycles, FIG. 14C, 14D): impressive response
patients in PSA response (PSMA expressing cancers [2]): 15/28
patients in PSA response (percentage) (PSMA expressing cancers [2]): 54%
patients with decrease in PSA >25% (PSMA expressing cancers [2]; [7]): 17 patients
patients with decrease in PSA >50% (PSMA expressing cancers [2]; [7]): 12 patients
patients presenting a decrease in PSA (PSMA expressing cancers [2]; eight weeks after the first treatment cycle, 20 patients, 100 kBq/kg body weight, 3 times in two month intervals): 19/20
patients presenting a decrease in PSA (PSMA expressing cancers [2]; [8]): 15/20
patients with decrease in PSA >50% (PSMA expressing cancers [2]; [8]): 14 patients
patients presenting a decrease in PSA (PSMA expressing cancers [2]; [9]): 15/20
patients with decrease in PSA >50% (PSMA expressing cancers [2]; [9]): 12 patients
change in thrombocyte or white blood cell count [3]: no significant change
dysfunction of salivary glands [3]: Several patients reported dysfunction of salivary glands
tolerability of the treatment [3]: well tolerated
clinically reported side effect ([4]; patient A): Moderate but enduring dysfunction of salivary glands
hemoglobin level, CTCAE grade ([4]; patient A): grade 2
platelet level, grade according to Common Terminology Criteria for Adverse Events, version 4.0 ([4]; patient A): grade 1
total white blood cell count, CTCAE grade ([4]; patient A): grade 1
hematologic toxicity (blood cell count) ([4]; patient A, FIG. 13A): moderate hematologic toxicity
hemoglobin level (lowest) [4, 10]: ≥ 9.5 g/dL
platelet level (lowest) [4, 10]: ≥ 100 /n1
total white blood cell count (lowest) [4, 10]: ≥ 2.5 /n1
reported side effect ([4]; patient B): severe dysfunction of salivary glands
hematologic toxicity (laboratory tests) ([4]; patient B, 3 cycles of 6.4 MBq): no relevant hematologic toxicity

O=C([O-])CN1CCN(CC(=O)[O-])CCN(CC(=O)NCC2CCC(C(=O)N[C@@H](Cc3ccc4ccccc4c3)C(=O)NCCCC[C@H](NC(=O)N[C@@H](CCC(=O)O)C(=O)O)C(=O)O)CC2)CCN(CC(=O)[O-])CC1.[177Lu+3] (stereo partly shown) [Lu-177-PSMA-617, reference compound]
lesions on PSMA PET/CT, restaging ([1]; patient B, after 2 cycles of Lu-177-PSMA-617): tumor progression
PSA level ([1]; patient B, after cycle 2, 7.4 GBq per cycle, initial PSA level 294 ng/ml): 419 ng/mL
patients presenting a decrease in PSA (PSMA expressing cancers [5]; [11]): 21/30
patients with decrease in PSA >50% (PSMA expressing cancers [5]; [11]): 16 patients
patients presenting a decrease in PSA (PSMA expressing cancers [5]; 30 patients, twenty-four weeks after the first treatment cycle, some patients dropped out): 9/30
patients with decrease in PSA >50% among those with PSA decrease (PSMA expressing cancers [5]; twenty-four weeks after the first treatment cycle): all of them
patients in PSA response (PSMA expressing cancers [2]): 9/30
patients in PSA response (percentage) (PSMA expressing cancers [2]): 30%
response rate in comparison to Ac-225-PSMA-617 group (PSMA expressing cancers [2]; comparison of treated groups): lower response rate
change in thrombocyte or white blood cell count [3]: no significant change
dysfunction of salivary glands [3]: Mild moderate dysfunction of salivary glands
tolerability of the treatment [3]: well tolerated
